In data set [1] the test system is hTERT-HPNE (non-cancerous human pancreatic ductal epithelial cell line). As to the kind of experiment: MTT cell viability, non-cancerous cells. The data set is classed as cell-based. The settings on record: 48 hours. As to the method:
Pancreatic cancer cell lines were obtained from the American Type Culture Collection (Manassas, Va.). hTERT-HPNE cells (immortalized human pancreatic ductal epithelial cells) were donated by Dr. Anant at the University of Kansas Medical Center. MTT assay was used for cell viability detection, with starting cell number in 96-well plate of 3000/well (for 72 h treatment) or 5000/well (for 48 h treatment).
Pancreatic cancer cell lines with different endogenous HuR expression levels were treated with serial concentrations of KH-3 for 48 hours. KH-3 induced cytotoxicity in pancreatic cancer cells, with the sensitivity correlated to endogenous HuR protein levels (FIG. 30). MIA PaCa2 cells have the highest HuR protein abundance among the tested cell lines and were the most sensitive to HuR treatment (IC50=5 μM). […] BxPC-3 cells, another human pancreatic cancer cell line, have HuR expression level in the middle, and the IC50 of KH-3 was in the middle (10 μM). A non-cancerous human pancreatic ductal epithelial cell line (hTERT-HPNE) was tested under the same conditions. hTERT-HPEN cells have the lowest abundance of HuR protein compared to the cancer cells, and the cytotoxicity of KH-3 to these cells were minimal (IC50>>40 μM). There is an inverse correlation in the tested cell lines between the HuR expression levels and the sensitivity to KH-3 treatment (FIG. 30) (R=−0.71 by Pearson Tests).

The test system of data set [2] is PANC-1-Luc orthotopic pancreatic xenografts. Nature of the data set: Orthotopic pancreatic tumor model (PANC-1-Luc). The data set is classed as in vivo, nude mice. As to the method: All animal procedures were approved by the Institutional Animal Care and Use Committee at the University of Kansas Medical Center under the protocol #2015-2247. Dose of KH-3 was pre-determined by a pilot experiment to be 100 mg/kg body weight, intraperitoneal injection (IP), three times weekly. All treatment in this pancreatic cancer section of the present disclosure concerning KH-3 used this dose regimen.
An orthotopic pancreatic tumor model was used to determine treatment effects of KH-3. Luciferase-expressing PANC-1 cells (PANC-1-Luc, multi-clones) were established by the Preclinical Proof of Concept Core Laboratory (University of Kansas Medical Center, Kansas City, Kans.). A small subcostal laparotomy was performed in female Ncr nu/nu mice to expose the pancreas, and 2×10^5 PANC-1-Luc cells in 50 μL PBS were injected into the tail of pancreas. […]
The in vivo tumor inhibitory effects of KH-3 were tested in a highly metastatic orthotopic model of pancreatic cancer. […] Tumor progression is monitored by weekly imaging using an IVIS Spectrum imaging system (Caliper Life Sciences). […] After 2 weeks, tumor development in the pancreas of the recipient mice was detected by imaging. […] The dose regimen of KH-3 was determined by a pilot dose-finding experiment to be 100 mg/kg, intraperitoneal injection (IP), three times (3×) weekly, which was the highest dose without showing toxicity. […]

For data set [3], the target named is T1, HuR protein interaction with the ARE site of Msi1 mRNA (HuR-Msi1^ARE) (Homo sapiens, UniProt Q15717).
T1 construct: full-length human HuR protein was produced by the KU COBRE-PSF Protein Purification Group; made in house
Nature of the data set: Fluorescence polarization (FP) assay, inhibition of HuR-Msi1 ARE interaction. The settings on record: full-length human HuR, read-out: Ki via FP assay. The data set is classed as binding. The text has this:
A fluorescence polarization (FP)-based binding assay was utilized to assess the inhibition of HuR protein interaction with the ARE site of Msi1 mRNA (“HuR-Msi1^ARE”) by compounds of interest. Briefly, full-length human HuR protein was produced by the KU COBRE-PSF Protein Purification Group and Bcl2, Msi1 and XIAP mRNA sequences (16 nt) were designed based on literature precedent^23,24,31,32. Fluorescein labeled RNAs were purchased from Dharmacon with the following sequences: Msi1 RNA: 5′-GCUUUUAUUUAUUUUG-3′-fluorescein; Bcl-2 RNA: 5′-AAAAGAUUUAUUUAUU-3′-fluorescein; XIAP RNA: 5′-UAGUUAUUUUUA UGUC-3′-fluorescein, and a 16-nt degenerative RNA with 3′-fluorescein label was used as a negative control.
Background: Fluorescence polarisation rises when a labelled molecule tumbles more slowly, as on binding a larger partner.

Where only a bound is given, the exact number is not on record here.

T1 sequence (Q15717 whole entry): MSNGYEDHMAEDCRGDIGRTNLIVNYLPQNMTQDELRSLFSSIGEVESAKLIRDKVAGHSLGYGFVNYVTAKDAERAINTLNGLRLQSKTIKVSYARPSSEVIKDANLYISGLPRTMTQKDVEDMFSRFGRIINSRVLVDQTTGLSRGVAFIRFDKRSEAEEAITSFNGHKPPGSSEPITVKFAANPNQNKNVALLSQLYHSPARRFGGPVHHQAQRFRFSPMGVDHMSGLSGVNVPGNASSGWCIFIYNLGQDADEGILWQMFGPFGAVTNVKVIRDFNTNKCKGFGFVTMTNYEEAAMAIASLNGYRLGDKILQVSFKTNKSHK

As a reminder, the IC50 is the concentration needed to halve the response being measured. A higher IC50 goes with weaker potency. A word on the Ki: it is the equilibrium dissociation constant of an inhibitor or competing ligand from its target. `CC(C)(C)c1ccc(S(=O)(=O)Nc2ccc3sc(/C=C/C(=O)NO)cc3c2)cc1` [KH-3] yielded an IC50 in data set [1] greater than 40000 nM. Further, the “mice that developed metastasis (liver)” value in data set [2] (100 mg/kg IP 3× weekly, 5 weeks, 1/10) was 10%. Further, the “highest dose without showing toxicity” value in data set [2] (pilot dose-finding experiment, IP, three times weekly) was 100 mg/kg. Also, the Ki in data set [3] is 810 nM.
